According to patent EP0232017A1 (priority 1986, dated 1987):

System: anaerobes and Gram positive aerobes
Type: cell-based
Conditions: dipped-disc Biospectrum assay at 1 mg/ml; result in words, zone sizes only in image Tables XIII-XV

Compound	activity vs. anaerobes and Gram positive aerobes
CC(=O)N1CC(C(C)C)C1=O (racemic) [2-azetidinone, 1-acetyl-3-(1-methylethyl)-, (±)-]	high activity
CCCCCCCC(=O)N1CC(C(C)C)C1=O (racemic) [2-azetidinone, 3-(1-methlethyl)-1-(oxooctyl)-, (±)-]	high activity
CCCCC(=O)N1CC(C(C)C)C1=O (racemic) [2-azetidinone, 3-(1-methylethyl)-1-(1-oxopentyl)-, (±)-]	high activity
CCCCCC(=O)N1C(=O)[C@@H]2CCCC[C@@H]21 (relative stereo) [Example 94, N-Hexanoyl-cis-3,4-tetramethylene-2-azetidinone]	high activity
CCCC(=O)N1CC(C(C)C)C1=O (stereo not drawn) [2-azetidinone, 3-(1-methylethyl)-1-(1-oxobutyl)-]	high activity
CCCCCC(=O)N1CC(C(C)C)C1=O (stereo not drawn) [2-azetidinone, 3-(1-methylethyl)-1-(1-oxohexyl)-]	high activity
